Source: article PMC9167697 (Clinical cancer research : an official journal of the …, 2022)

Assays:
[1] = Plasma pharmacokinetics of taminadenant in the phase I/Ib study; type: in vivo, human
[2] = tested on: patients with advanced NSCLC; experiment: Safety, tolerability, DLT and MTD in the phase I/Ib dose-escalation study; type: in vivo
[3] = tested on: advanced/metastatic NSCLC; experiment: Tumor response; type: in vivo, human
[4] = molecular target: human A2AR; conditions: cited from earlier work
[5] = tested on: A2AR; conditions: cells transfected with A2AR; cited from earlier work
[6] = tested on: mouse xenograft models; conditions: cited from earlier work
[7] = investigator-assessed, RECIST v1.1, n=25

With `Nc1nc(-n2cccn2)nc(-n2cccn2)c1Br` [Taminadenant] the Vd/F ([1]; human, in vivo) was 114 to 1520 L, the “apparent clearance (CL/F) upon repeated daily dosing compared with a single dose” value ([1]; human, in vivo) was “notably decreased” and the “time to maximum plasma drug concentration (Cmax)” value ([1]; human, in vivo, po) was 0.5 to 3 h. The “differences in taminadenant PK between the single-agent and combination group” value ([1]; large inter-individual variability in Cmax and AUC) was “no notable differences”, the “accumulation relative to a single dose” value ([1]; repeated daily doses, after 1 week) was “approximately 3 fold” and the “increase of systemic exposure (Cmax, AUC) with escalating doses” value ([1]; single and multiple doses from 80 mg to 640 mg) was “more-than-proportional”. For the same compound, the “dose delays or interruptions” value ([2]; human, in vivo) was 13 patients, the “patients who discontinued due to adverse events” value ([2]; human, in vivo) was 12.0% and the “patients with Grade 3/4 TRAEs” value ([2]; human, in vivo) was 16.0%. The “patients with treatment-related adverse events (TRAEs) of any grade” value ([2]; human, in vivo) was 84.0%, the “patients with treatment-related fatigue” value ([2]; human, in vivo) was 20.0% and the “patients with treatment-related gastroesophageal reflux disease” value ([2]; human, in vivo) was 24.0%. For the same compound, the “patients with treatment-related nausea” value ([2]; human, in vivo) was 44.0%, the “patients with treatment-related vomiting” value ([2]; human, in vivo) was 20.0% and the “dose delays due to TRAEs” value ([2]; in vivo) was “five”. The “patients reporting at least one adverse event, regardless of causality” value ([2]; in vivo) was “All patients”, the tolerability ([2]; in vivo) was “well tolerated” and the on-study deaths ([2]; n=25 per group, none related to study treatment) was 8.0%. For the same compound, the “maximum tolerated dose (MTD) of taminadenant” value ([2]; oral, combination with 400 mg spartalizumab Q4W) was 480 mg BID, the Disease control rate ([3]; CR + PR + SD, based on the number of evaluable patients) was 42.9 (21.8–66.0) % (95% CI) and the Overall response rate ([3]; CR + PR, based on the number of evaluable patients) was 9.5 (1.2–30.4) % (95% CI). The “median estimate of OS” value ([3]; Kaplan-Meier) was 9.7 months, the “median estimate of PFS” value ([3]; Kaplan-Meier, RECIST v1.1) was 3.9 months and the “Best overall response: Complete response” value [3, 7] was 1 (4.0) n (%). The “Best overall response: Non-evaluable” value [3, 7] was 4 (16.0) n (%), the “Best overall response: Partial response” value [3, 7] was 1 (4.0) n (%) and the “Best overall response: Progressive disease” value [3, 7] was 12 (48.0) n (%). The “Best overall response: Stable disease” value [3, 7] was 7 (28.0) n (%), the “patients who achieved disease control” value ([3]; of all 25 patients per group) was 36.0% and the “duration of complete response” value ([3]; one patient each, single agent 480 mg, combination 160 mg taminadenant) was 1.1 months. For the same compound, the “duration of disease control in a patient with stable disease” value ([3]; one patient, 160 mg, on treatment at data cut-off) was 36.7 months, the “in vitro binding affinity to human A2AR, as concentration” value [4] was 3.67 ng/mL and the Ki ([4]; read-out: in vitro binding affinity to human A2AR) was 12 nM. The “effect on cyclic adenosine monophosphate accumulation” value [5] was “inhibition of cyclic adenosine monophosphate accumulation” and the “effect on tumor growth” value [6] was “significantly reduced tumor growth”.
